In ChEMBL document CHEMBL4138316, “Optimization of Isothiazolo[4,3- b]pyridine-Based Inhibitors of Cyclin G Associated Kinase (GAK) with Broad-Spectrum Antiviral Activity” (J Med Chem, 2018):
≈ marks a conversion by molar mass, not a printed value. Calls of active or inactive are those of the source. The rule behind the calls is not given here.

Columns and labels:
Huh-7 [1] = assay: Cytotoxicity against human HuH7 cells after 48 hrs by Alamar Blue assay; assay type: cell-based; conditions: huh-7, 48 h
dengue virus type 2 [2] = assay: Antiviral activity against DENV2 New Guinea C infected in human HuH7 cells after 48 hrs by luciferase reporter gene assay; assay type: functional, organism-based; conditions: Huh-7, 48 h
[3] = Apparent permeability cross apical to basolateral side in MDCK-MDR1 cells at 5 uM after 90 mins by LC-MS/MS analysis; assay type: ADME, cell-based, Canis lupus familiaris; conditions: dog, mdck-mdr1, 1.5 h
[4] = Apparent permeability cross basolateral to apical side in MDCK-MDR1 cells at 5 uM after 90 mins by LC-MS/MS analysis; assay type: ADME, cell-based, Canis lupus familiaris; conditions: dog, mdck-mdr1, 1.5 h
Ebolavirus = assay: Antiviral activity against Ebolavirus infected in human HuH7 cells after 48 hrs by immunofluorescence assay; assay type: functional, cell-based; conditions: for EC90: Orthoebolavirus, Huh-7, 48 h
Huh-7 [5] = assay: Cytotoxicity against human HuH7 cells after 48 hrs by CellTiter-Glo assay; assay type: cell-based; conditions: huh-7, 48 h
Dengue virus = assay: Antiviral activity against Dengue virus infected in doxycycline-inducible GAK (unkown origin) transfected TREx293 cells up to 20 uM after 72 hrs by luciferase reporter gene assay; assay type: functional, organism-based
[6] = molecular target: Platelet-derived growth factor receptor beta (Homo sapiens) (UniProt P09619); assay: Inhibition of wild-type human partial length PDGFRB (V582 to Y1009 residues) expressed in bacterial expression system at 10 uM by ATP-site competition binding assay based KinomeScan assay relative to control
Platelet-derived growth factor receptor beta (Homo sapiens), sequence (P09619 whole entry, the tested form may be a part): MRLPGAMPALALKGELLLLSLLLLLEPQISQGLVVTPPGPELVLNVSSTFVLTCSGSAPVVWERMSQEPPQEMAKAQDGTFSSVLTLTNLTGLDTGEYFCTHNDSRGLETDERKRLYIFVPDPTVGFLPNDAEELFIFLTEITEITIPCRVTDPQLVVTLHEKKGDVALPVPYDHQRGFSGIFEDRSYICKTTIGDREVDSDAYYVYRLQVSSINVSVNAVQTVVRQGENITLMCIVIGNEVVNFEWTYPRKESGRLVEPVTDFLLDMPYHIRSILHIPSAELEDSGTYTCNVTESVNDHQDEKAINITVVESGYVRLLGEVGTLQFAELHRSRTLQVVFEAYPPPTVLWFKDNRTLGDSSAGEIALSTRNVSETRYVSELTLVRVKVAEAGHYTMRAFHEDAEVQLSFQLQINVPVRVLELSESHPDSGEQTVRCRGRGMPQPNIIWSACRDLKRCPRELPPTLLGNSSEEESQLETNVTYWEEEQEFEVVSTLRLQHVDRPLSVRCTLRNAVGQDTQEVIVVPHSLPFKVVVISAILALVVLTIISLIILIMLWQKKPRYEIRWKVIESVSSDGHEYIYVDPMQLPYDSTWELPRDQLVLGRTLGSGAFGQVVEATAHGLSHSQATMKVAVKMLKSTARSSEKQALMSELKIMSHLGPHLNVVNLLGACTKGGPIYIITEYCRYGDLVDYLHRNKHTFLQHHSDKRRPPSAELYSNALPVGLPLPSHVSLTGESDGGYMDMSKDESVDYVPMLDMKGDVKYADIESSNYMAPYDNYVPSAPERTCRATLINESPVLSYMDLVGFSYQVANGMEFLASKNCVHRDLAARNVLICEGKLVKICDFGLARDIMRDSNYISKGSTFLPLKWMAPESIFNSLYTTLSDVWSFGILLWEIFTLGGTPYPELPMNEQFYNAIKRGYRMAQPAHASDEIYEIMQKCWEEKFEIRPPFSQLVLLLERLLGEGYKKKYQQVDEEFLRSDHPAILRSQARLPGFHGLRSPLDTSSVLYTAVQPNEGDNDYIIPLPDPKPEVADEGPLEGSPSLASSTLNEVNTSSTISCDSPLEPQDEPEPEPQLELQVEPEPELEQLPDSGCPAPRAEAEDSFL

[7] = Cytotoxicity against human MDDC cells after 72 hrs by Alamar Blue assay; assay type: cell-based
[8] = molecular target: Mitogen-activated protein kinase 14 (Homo sapiens) (UniProt Q16539); assay: Inhibition of wild-type human full length MAPK14 (M1 to S360 residues) expressed in bacterial expression system at 10 uM by ATP-site competition binding assay based KinomeScan assay relative to control
Mitogen-activated protein kinase 14 (Homo sapiens), sequence (Q16539 whole entry, the tested form may be a part): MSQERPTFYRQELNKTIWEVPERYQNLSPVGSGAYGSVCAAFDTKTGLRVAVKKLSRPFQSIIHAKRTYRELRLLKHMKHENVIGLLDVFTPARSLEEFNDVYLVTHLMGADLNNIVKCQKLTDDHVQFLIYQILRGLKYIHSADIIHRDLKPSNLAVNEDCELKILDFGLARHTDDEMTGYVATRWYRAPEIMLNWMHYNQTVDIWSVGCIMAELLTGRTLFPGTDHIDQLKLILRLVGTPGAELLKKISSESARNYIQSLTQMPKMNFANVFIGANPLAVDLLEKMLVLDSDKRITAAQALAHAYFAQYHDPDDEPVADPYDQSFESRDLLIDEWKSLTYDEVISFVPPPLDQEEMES

[9] = molecular target: T1, Aurora kinase C (Homo sapiens) (UniProt Q9UQB9); assay: Inhibition of wild-type human full length AURKC (M1 to S275 residues) expressed in bacterial expression system at 10 uM by ATP-site competition binding assay based KinomeScan assay relative to control
T1 sequence (whole entry): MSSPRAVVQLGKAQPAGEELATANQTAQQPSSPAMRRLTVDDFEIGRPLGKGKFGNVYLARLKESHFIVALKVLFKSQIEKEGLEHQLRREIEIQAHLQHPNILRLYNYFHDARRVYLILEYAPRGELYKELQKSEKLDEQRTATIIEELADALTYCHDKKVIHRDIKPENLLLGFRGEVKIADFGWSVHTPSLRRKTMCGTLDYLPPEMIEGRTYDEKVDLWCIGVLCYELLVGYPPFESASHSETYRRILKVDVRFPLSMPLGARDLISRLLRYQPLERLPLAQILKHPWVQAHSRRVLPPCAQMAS

[10] = Aqueous solubility in PBS buffer at pH 7.4 at 100 uM after 1 hr by LC-MS/MS analysis; assay type: physicochemical; conditions: pH 7.4, 1 h
[11] = molecular target: Tyrosine-protein kinase ABL1 (Homo sapiens) (UniProt P00519); assay: Inhibition of wild-type human non-phosphorylated ABL1 (S229 to K512 residues) expressed in mammalian expression system at 10 uM by ATP-site competition binding assay based KinomeScan assay relative to control
[12] = molecular target: Receptor-type tyrosine-protein kinase FLT3 (Homo sapiens) (UniProt P36888); assay: Inhibition of wild-type human partial length FLT3 (V592 to Y969 residues) expressed in bacterial expression system at 10 uM by ATP-site competition binding assay based KinomeScan assay relative to control
Receptor-type tyrosine-protein kinase FLT3 (Homo sapiens), sequence (P36888 whole entry, the tested form may be a part): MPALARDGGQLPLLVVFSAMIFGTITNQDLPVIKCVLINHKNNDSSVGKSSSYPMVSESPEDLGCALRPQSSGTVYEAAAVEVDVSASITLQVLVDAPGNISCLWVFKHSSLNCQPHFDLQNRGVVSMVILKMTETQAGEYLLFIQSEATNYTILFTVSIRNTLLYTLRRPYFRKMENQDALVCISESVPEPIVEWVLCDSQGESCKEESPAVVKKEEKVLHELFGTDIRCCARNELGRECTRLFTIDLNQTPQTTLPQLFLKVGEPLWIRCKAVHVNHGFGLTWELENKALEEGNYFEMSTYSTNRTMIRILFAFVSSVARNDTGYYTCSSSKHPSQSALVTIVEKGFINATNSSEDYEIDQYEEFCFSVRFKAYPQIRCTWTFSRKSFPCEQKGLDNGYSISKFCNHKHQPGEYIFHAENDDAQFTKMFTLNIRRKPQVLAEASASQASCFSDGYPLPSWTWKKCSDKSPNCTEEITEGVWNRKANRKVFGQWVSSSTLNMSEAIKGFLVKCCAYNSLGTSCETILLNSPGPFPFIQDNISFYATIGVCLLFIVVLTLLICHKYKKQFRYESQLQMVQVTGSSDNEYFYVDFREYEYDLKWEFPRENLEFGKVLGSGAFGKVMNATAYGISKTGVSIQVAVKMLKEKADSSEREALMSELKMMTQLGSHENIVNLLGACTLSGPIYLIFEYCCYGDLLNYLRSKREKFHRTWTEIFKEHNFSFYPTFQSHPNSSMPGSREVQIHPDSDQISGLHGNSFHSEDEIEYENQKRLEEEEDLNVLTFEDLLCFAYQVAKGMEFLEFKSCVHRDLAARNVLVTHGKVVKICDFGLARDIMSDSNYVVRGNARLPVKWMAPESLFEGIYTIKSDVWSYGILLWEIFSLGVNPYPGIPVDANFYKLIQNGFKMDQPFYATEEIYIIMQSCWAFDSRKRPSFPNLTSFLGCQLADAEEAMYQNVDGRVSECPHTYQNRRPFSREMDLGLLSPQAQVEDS

[13] = molecular target: T2, Cyclin-G-associated kinase (Homo sapiens, UniProt O14976)
T2 sequence (O14976 whole entry): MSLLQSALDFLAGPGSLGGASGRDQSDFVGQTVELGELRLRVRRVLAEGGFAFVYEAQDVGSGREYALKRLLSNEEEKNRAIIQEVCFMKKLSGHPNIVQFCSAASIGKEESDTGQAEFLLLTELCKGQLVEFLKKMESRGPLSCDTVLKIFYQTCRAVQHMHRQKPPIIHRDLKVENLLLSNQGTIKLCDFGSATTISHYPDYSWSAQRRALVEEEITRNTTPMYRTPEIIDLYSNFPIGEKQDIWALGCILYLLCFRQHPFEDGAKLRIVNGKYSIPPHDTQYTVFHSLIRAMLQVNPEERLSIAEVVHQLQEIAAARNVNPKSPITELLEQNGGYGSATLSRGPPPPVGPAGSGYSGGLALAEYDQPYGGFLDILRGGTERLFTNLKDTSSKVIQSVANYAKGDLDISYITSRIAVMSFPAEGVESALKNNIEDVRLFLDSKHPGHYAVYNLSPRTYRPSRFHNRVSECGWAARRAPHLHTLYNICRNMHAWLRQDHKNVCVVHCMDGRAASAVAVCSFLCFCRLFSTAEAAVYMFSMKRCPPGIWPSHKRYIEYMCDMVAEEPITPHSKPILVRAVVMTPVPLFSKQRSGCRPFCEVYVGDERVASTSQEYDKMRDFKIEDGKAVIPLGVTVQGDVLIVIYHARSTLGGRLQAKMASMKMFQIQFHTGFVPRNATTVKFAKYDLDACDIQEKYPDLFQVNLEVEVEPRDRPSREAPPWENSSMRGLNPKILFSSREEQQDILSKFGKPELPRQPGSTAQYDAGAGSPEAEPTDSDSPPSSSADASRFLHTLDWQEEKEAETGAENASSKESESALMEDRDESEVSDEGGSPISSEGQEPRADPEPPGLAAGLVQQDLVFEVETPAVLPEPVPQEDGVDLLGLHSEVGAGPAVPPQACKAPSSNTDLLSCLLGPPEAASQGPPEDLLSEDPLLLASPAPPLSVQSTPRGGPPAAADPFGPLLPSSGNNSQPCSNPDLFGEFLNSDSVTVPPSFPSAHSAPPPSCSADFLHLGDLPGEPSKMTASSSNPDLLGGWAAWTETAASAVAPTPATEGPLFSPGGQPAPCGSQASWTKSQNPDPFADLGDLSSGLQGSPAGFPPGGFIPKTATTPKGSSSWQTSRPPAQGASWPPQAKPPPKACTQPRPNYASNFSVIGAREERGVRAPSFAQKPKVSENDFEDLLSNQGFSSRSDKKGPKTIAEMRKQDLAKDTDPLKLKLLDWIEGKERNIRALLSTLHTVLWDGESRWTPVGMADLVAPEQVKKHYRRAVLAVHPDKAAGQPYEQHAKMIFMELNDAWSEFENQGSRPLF

Chikungunya virus = assay: Antiviral activity against Chikungunya virus AF15561 infected in African green monkey Vero cells preincubated for 48 hrs followed by viral infection measured after 48 hrs by plaque assay; assay type: functional, organism-based
[14] = molecular target: Mast/stem cell growth factor receptor Kit (Homo sapiens, UniProt P10721); assay: Inhibition of wild-type human partial length KIT (I571 to D952 residues) expressed in bacterial expression system at 10 uM by ATP-site competition binding assay based KinomeScan assay relative to control
Mast/stem cell growth factor receptor Kit, sequence (P10721 whole entry, the tested form may be a part): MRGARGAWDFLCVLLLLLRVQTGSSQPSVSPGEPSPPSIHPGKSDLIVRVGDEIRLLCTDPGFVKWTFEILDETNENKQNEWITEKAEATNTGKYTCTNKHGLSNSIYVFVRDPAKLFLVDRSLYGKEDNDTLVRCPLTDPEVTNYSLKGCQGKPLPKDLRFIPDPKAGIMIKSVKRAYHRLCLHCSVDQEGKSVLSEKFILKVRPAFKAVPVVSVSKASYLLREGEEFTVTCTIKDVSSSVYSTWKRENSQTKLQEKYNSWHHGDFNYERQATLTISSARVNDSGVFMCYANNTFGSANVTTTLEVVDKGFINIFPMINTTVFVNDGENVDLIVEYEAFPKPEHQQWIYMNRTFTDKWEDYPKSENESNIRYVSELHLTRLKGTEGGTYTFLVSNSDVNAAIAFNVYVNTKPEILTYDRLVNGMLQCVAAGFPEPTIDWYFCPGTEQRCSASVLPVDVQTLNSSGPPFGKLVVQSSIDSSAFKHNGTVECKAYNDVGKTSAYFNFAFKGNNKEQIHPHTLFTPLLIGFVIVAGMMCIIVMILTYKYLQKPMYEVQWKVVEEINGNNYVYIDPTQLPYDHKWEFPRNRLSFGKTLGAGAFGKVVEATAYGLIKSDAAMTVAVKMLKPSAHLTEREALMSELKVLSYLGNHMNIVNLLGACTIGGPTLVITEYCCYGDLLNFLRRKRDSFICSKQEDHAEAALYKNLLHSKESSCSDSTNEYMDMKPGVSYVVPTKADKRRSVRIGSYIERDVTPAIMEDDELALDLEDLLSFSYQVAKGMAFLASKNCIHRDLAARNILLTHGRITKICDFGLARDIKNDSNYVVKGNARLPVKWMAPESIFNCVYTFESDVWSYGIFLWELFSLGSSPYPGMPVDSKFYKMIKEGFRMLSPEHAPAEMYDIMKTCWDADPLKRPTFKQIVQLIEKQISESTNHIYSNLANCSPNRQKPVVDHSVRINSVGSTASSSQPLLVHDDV

[15] = molecular target: T3, Dual specificity mitogen-activated protein kinase kinase 5 (Homo sapiens) (UniProt Q13163); assay: Inhibition of wild-type human partial length MAP2K5 (L98 to P448 residues) expressed in mammalian expression system at 10 uM by ATP-site competition binding assay based KinomeScan assay relative to control
T3 sequence (whole entry): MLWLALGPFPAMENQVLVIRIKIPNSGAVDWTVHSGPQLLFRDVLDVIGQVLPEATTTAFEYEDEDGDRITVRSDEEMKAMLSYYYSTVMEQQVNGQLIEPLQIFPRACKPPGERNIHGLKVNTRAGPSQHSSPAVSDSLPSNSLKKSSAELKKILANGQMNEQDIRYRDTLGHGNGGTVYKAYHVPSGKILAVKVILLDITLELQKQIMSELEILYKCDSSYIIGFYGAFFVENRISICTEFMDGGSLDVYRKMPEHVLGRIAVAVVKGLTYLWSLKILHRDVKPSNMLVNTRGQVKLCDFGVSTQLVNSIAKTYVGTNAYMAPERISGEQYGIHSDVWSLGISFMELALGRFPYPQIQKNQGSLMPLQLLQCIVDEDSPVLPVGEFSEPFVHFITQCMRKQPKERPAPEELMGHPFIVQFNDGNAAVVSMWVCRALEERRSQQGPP

[16] = molecular target: Ephrin type-A receptor 7 (Homo sapiens) (UniProt Q15375); assay: Inhibition of wild-type human partial length EPHA7 (Y608 to S912 residues) expressed in bacterial expression system at 10 uM by ATP-site competition binding assay based KinomeScan assay relative to control
Ephrin type-A receptor 7 (Homo sapiens), sequence (Q15375 28-998 limits assumed): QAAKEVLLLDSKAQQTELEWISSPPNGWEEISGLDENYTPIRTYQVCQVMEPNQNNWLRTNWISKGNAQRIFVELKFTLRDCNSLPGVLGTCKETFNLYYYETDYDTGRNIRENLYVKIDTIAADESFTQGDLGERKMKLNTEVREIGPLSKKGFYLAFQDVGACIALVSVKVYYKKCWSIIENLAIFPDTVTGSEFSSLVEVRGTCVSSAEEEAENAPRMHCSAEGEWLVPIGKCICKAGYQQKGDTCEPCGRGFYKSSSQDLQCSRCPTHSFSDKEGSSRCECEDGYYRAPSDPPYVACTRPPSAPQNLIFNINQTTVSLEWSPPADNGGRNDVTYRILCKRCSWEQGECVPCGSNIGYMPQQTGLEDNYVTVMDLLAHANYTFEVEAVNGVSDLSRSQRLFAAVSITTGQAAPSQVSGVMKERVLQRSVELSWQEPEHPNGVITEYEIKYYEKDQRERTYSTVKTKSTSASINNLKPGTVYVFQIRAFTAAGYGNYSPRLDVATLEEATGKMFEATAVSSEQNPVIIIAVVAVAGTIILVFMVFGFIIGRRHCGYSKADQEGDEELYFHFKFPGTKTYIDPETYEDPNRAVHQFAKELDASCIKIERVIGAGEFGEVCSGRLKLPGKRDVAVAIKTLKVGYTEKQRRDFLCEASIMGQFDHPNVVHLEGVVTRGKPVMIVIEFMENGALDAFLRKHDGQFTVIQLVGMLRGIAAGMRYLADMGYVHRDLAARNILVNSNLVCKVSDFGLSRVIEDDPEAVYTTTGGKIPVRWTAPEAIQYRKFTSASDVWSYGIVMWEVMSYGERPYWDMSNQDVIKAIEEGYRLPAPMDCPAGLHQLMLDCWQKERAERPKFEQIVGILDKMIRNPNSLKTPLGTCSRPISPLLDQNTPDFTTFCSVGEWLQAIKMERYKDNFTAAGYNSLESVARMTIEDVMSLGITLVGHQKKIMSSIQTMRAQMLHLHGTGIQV

dengue virus type 2 [17] = assay: Antiviral activity against DENV2 16881 infected in human MDDC after 72 hrs by plaque assay; assay type: functional, organism-based; conditions: Dengue virus, 16881, 72 h

For `COc1cc(-c2cnc3c(NC4CCOCC4)snc3c2)ccc1N`, the CC50 (Huh-7 [1]) was > 20 µM.

For `COc1cc(-c2cnc3c(N4CCOC[C@@H]4C)snc3c2)ccc1N`, the CC50 (Huh-7 [1]) was 6.32 µM.

Compound `COc1cc(-c2cnc3c(N4CCC(C#N)CC4)snc3c2)ccc1N` has a CC50 (Huh-7 [1]) of 2.09 µM.

With `COc1cc(-c2cnc3c(N4CCCOCC4)snc3c2)ccc1N` the CC50 (Huh-7 [1]) was > 10 µM.

In the case of `COc1cc(-c2cnc3c(N4CCC(N)CC4)snc3c2)ccc1N`, the CC50 (Huh-7 [1]) is reported as > 10 µM.

With `COc1cc(-c2cnc3c(N4C[C@@H](C)O[C@H](C)C4)snc3c2)ccc1N` (relative stereo) the CC50 (Huh-7 [1]) was > 10 µM, the EC50 (dengue virus type 2 [2]) was 0.7 µM and the EC90 (dengue virus type 2 [2]) was 2.15 µM.

For `COc1cc(-c2cnc3c(N4CC5CCC(C4)O5)snc3c2)ccc1N`, the CC50 (Huh-7 [1]) was > 10 µM.

Compound `COCCc1ccc(OCC(O)CNC(C)C)cc1` (stereo not drawn) [METOPROLOL] has a Papp [3] of 39.29 ×10⁻⁶ cm/s and a Papp [4] of 30.66 ×10⁻⁶ cm/s.

For `COc1cc(-c2cnc3c(N4CCO[C@H](C)C4)snc3c2)ccc1N`, the Activity (Ebolavirus) was “Dose-dependent effect”, the CC50 (Huh-7 [5]) was > 10 µM and the CC50 (Huh-7 [1]) was 20.7 µM.

In the case of `COc1cc(-c2cnc3c(N4CCS(=O)(=O)CC4)snc3c2)ccc1N`, the CC50 (Huh-7 [1]) is reported as > 10 µM.

In the case of `COc1cc(-c2cnc3c(N4CCCCC4)snc3c2)ccc1N`, the CC50 (Huh-7 [1]) is reported as > 10 µM.

With `COc1cc(-c2cnc3c(N4CCCC(C(N)=O)C4)snc3c2)ccc1N` (stereo not drawn) the CC50 (Huh-7 [1]) was > 10 µM.

With `COc1cc(-c2cnc3c(N4C[C@@H](C)O[C@@H](C)C4)snc3c2)ccc1N` the Activity (Dengue virus) was “inactive”, the inhibition [6] was > 90% and the CC50 [7] was > 20 µM. For the same compound, the inhibition [8] was > 90%, the inhibition [9] was > 90% and the EC90 (Ebolavirus) was 7.73 µM. For the same compound, the solubility [10] was 0.52 µM (≈ 0.193 µg/mL), the inhibition [11] was > 90% and the CC50 (Huh-7 [5]) was > 10 µM. The Papp [3] was 31.33 ×10⁻⁶ cm/s, the inhibition [12] was > 90% and the CC50 (Huh-7 [1]) was > 25 µM. For the same compound, the Kd [13] was 0.089 µM, the Papp [4] was 18.28 ×10⁻⁶ cm/s and the Activity (Chikungunya virus) was “Dose-dependent effect”. The inhibition [14] was > 90%, the inhibition [15] was > 90% and the EC50 (dengue virus type 2 [2]) was 0.82 µM. For the same compound, the EC90 (dengue virus type 2 [2]) was 1.76 µM, the inhibition [16] was > 90% and the EC50 (dengue virus type 2 [17]) was 3.54 µM.

With `CC(C)NCC(O)COc1cccc2ccccc12` (stereo not drawn) [PROPRANOLOL] the solubility [10] was 117 µM (≈ 30.3 µg/mL).

For `COc1cc(-c2cnc3c(N4CC5(COC5)C4)snc3c2)ccc1N`, the CC50 (Huh-7 [1]) was > 10 µM, the Kd [13] was 0.17 µM and the EC50 (dengue virus type 2 [2]) was 7.12 µM. For the same compound, the EC90 (dengue virus type 2 [2]) was > 10 µM.

`COc1cc(-c2cnc3c(N4CCOCC4)snc3c2)ccc1N` showed an EC90 (Ebolavirus) of 21.9 µM, a solubility [10] of 3.44 µM (≈ 1.18 µg/mL) and a CC50 (Huh-7 [5]) of 11 µM. It also gave a Papp [3] of 45.45 ×10⁻⁶ cm/s, a Papp [4] of 30.8 ×10⁻⁶ cm/s and an EC50 (dengue virus type 2 [2]) of 1.84 µM. The EC90 (dengue virus type 2 [2]) was 8.05 µM.

With `COc1cc(-c2cnc3c(N4CCOC(C)(C)C4)snc3c2)ccc1N` the CC50 (Huh-7 [1]) was 4.14 µM.

For `COc1cc(-c2cnc3c(N4CCOC(C)C4)snc3c2)ccc1N` (racemic), the Activity (Ebolavirus) was “Dose-dependent effect”, the CC50 (Huh-7 [5]) was 9.4 µM and the CC50 (Huh-7 [1]) was 21.5 µM.

For `COc1cc(-c2cnc3c(N4CCC(C(N)=O)CC4)snc3c2)ccc1N`, the CC50 (Huh-7 [1]) was > 10 µM.

For `COc1cc(-c2cnc3c(N4CCC(F)(F)CC4)snc3c2)ccc1N`, the CC50 (Huh-7 [1]) was > 10 µM.

With `COc1cc(-c2cnc3c(N4CCOC[C@H]4C)snc3c2)ccc1N` the CC50 (Huh-7 [1]) was > 10 µM.

In the case of `COc1cc(-c2cnc3c(N4CCNC(=O)C4)snc3c2)ccc1N`, the solubility [10] is reported as 51.3 µM (≈ 18.2 µg/mL), the Papp [3] is reported as 30.32 ×10⁻⁶ cm/s and the CC50 (Huh-7 [1]) is reported as > 10 µM. For the same compound, the Papp [4] was 43.48 ×10⁻⁶ cm/s.

For `COc1cc(-c2cnc3c(N4CCO[C@@H](C)C4)snc3c2)ccc1N`, the Activity (Ebolavirus) was “Dose-dependent effect” and the CC50 (Huh-7 [1]) was > 25 µM.
